Test results reported in US20130254944A1, “Herbicide Tolerant Soybeans and Methods of Use” (PIONEER HI BRED INTERNATIONAL INC, priority 2012, published 2013).

How the values were obtained:
Type in all cases: in vivo
[1] = test system: wild type soybean; assay: Greenhouse postemergence test of ALS-inhibiting herbicides, wild type soybean
Procedure: (§1) Soybean lines having wild type als1 & 2 genes, the Als1 mutation, the Als2 mutation, or both the Als1 and Als2 mutations were evaluated for their response to various herbicides. Two seeds from each line were planted into 4-inch pots containing Redi-Earth potting mix (Sun Gro Horticulture Canada Ltd. 52130 RR65, Seba Beach, Alberta TOE 2B0), with two replications planted for each treatment. Pots were placed in flats at 15 pots/flat, and the resulting plants were grown in a greenhouse environment supplemented with lighting (16 hr photoperiod) for the duration of the test. Selected herbicides representing the mode of action that inhibits the acetolactate synthase enzyme, also known as the acetohydroxyacid synthase enzyme, were applied postemergence to soybean when soybean plants were at the V2 growth stage, which is the stage at which the first two trifoliolate leaves were expanded.
(§2) Eleven active ingredients representing the five chemical families with herbicidal activity on the acetolactate synthase enzyme were tested. These herbicides can cause a phytotoxic response in wild type soybean plants. The five chemical families tested were sulfonylaminocarbonyltriazolinone (also known as triazolinone), imidazolinone, sulfonylurea, pyrimidinylthiobenzoate, and triazolopyrimidine. Application rates ranged from 0.5 times to eight times the currently labeled application rate for each active ingredient with spray application volume at 30 gallons/acre. The application rates tested were 0.5×, 1×, 2×, 4× and 8× the label rate for each herbicide. Herbicidal active ingredients were applied as formulated materials dispersed in water containing 0.25% nonionic surfactant (Trend® 90).
(§3) The test was evaluated by visually scoring plant phenotype 14 days after the herbicides were applied. Controls consisted of soybean plants of the same variety that received no herbicide treatments for each of all the varieties tested. Soybean response was recorded on a zero to 100 visual scale in which zero is no phytotoxic response and 100 is plant death fourteen days after the herbicides were applied. Soybean response (percent phytotoxicity) to postemergence applications of herbicides inhibiting the acetolactate synthase enzyme test results are shown in Table 1.

[2] = test system: soybean having both the Als1 and Als2 mutations; assay: Greenhouse postemergence test of ALS-inhibiting herbicides and isobole analysis, soybean with Als1 and Als2 mutations; details: for Avg response (% phytotoxicity), Trait Als1 + Als2: Table 2; for EC10, Als1 + Als2: rate of herbicide estimated to cause 10% phytotoxic response
Procedure: as §1, §2, §3
(§4) Results in Table 1 were evaluated using the isobole method for analyzing interactions. […] Here the biologically active agents that are being assessed for interaction (synergy) are gene mutations in soybean. The effectiveness of the genes in providing improved tolerance to ALS-inhibiting herbicides was assessed by applying increasing doses of herbicides to each soybean line with its mutation(s).
(§5) An isobole reduces a dose response surface in three dimensional space to a two dimensional plot by fixing a defined response level (e.g., 50% response). The isobole plot is a graph in the Cartesian plane with a straight line connecting the isoeffective rates of the individual components of the combination. This straight line represents expected responses for zero interactive combinations. The isoeffective rate used to create the isobole is often the EC50, the rate estimated to elicit 50% response, but other ECx values can be used. Since the isobole method is based on the potency of the components of the combination, an experimental design testing a range of rates expected to elicit the full range of responses (e.g., 0 to maximum response) is best. (Ferry et al. (2005) 2005 Conference on Applied Statistics in Agriculture Proceedings pp 33-50, Manhattan, Kans., Kansas State Univ.; Green and Streibig (1993) Herbicide Mixtures, pp 117-134 in Herbicide Bioassays, Streibig and Hudsk Eds, CRC, Boca Raton, Fla.).
(§6) Loglogistic dose response curves were fit to percent phytotoxicity response data using log 10 of dose (McCullagh and Nelder (1989) Generalized Linear Models, Chapman & Hall, London). Curves were fit using the logit link with normal errors. […]

[3] = test system: soybean having the Als1 mutation; assay: Greenhouse postemergence test of ALS-inhibiting herbicides, soybean with Als1 mutation; details: for Avg response (% phytotoxicity), Trait Als1: Table 2; for EC10, Als1: rate of herbicide estimated to cause 10% phytotoxic response
Procedure: as §1, §2, §3, §4, §5, §6

[4] = test system: soybean having the Als2 mutation; assay: Greenhouse postemergence test of ALS-inhibiting herbicides, soybean with Als2 mutation; details: for Avg response (% phytotoxicity), Trait Als2: Table 2; for EC10, Als2: rate of herbicide estimated to cause 10% phytotoxic response
Procedure: as §1, §2, §3, §4, §5, §6

[5] = 8.75 g ai/ha postemergence at V2, scored 14 days after application
[6] = 17.5 g ai/ha postemergence at V2, scored 14 days after application
[7] = 35 g ai/ha postemergence at V2, scored 14 days after application
[8] = 70 g ai/ha postemergence at V2, scored 14 days after application
[9] = 140 g ai/ha postemergence at V2, scored 14 days after application
[10] = rates 0.5x to 8x the label rate
[11] = 280 g ai/ha postemergence at V2, scored 14 days after application
[12] = rate of herbicide estimated to cause 50% phytotoxic response, loglogistic fit

SMILES	Soybean response (percent phytotoxicity), Wild type [1, 6] [%]	Soybean response (percent phytotoxicity), Wild type [1, 7] [%]	Soybean response (percent phytotoxicity), Wild type [1, 8] [%]	Soybean response (percent phytotoxicity), Wild type [1, 9] [%]	Soybean response (percent phytotoxicity), Als1 + Als2 [2, 6] [%]	Soybean response (percent phytotoxicity), Als1 + Als2 [2, 7] [%]	Soybean response (percent phytotoxicity), Als1 + Als2 [2, 8] [%]	Soybean response (percent phytotoxicity), Als1 + Als2 [2, 9] [%]	Soybean response (percent phytotoxicity), Als1 [3, 6] [%]	Soybean response (percent phytotoxicity), Als1 [3, 7] [%]	Soybean response (percent phytotoxicity), Als1 [3, 8] [%]	Soybean response (percent phytotoxicity), Als1 [3, 9] [%]	Soybean response (percent phytotoxicity), Als2 [4, 6] [%]	Soybean response (percent phytotoxicity), Als2 [4, 7] [%]	Soybean response (percent phytotoxicity), Als2 [4, 8] [%]	Soybean response (percent phytotoxicity), Als2 [4, 9] [%]	Avg response (% phytotoxicity), Trait Als1 + Als2 ([2]; 17.5 g ai/ha) [%]	Avg response (% phytotoxicity), Trait Als1 + Als2 ([2]; 35 g ai/ha) [%]	Avg response (% phytotoxicity), Trait Als1 + Als2 ([2]; 70 g ai/ha) [%]	Avg response (% phytotoxicity), Trait Als1 + Als2 ([2]; 140 g ai/ha) [%]	further results
CCOc1nc(F)cc2nc(S(=O)(=O)Nc3c(Cl)cccc3C(=O)OC)nn12 [Cloransulam methyl]	0	0	5	15	0	0	0	0	0	0	0	0	0	0	0	0					Soybean response (percent phytotoxicity), Wild type [1, 5]: 0%; Soybean response (percent phytotoxicity), Als1 + Als2 [2, 5]: 0%; phytotoxic response (in words), Als1+Als2 [2, 10]: did not cause any phytotoxic response; Soybean response (percent phytotoxicity), Als1 [3, 5]: 0%; phytotoxic response (in words), Als1 [3, 10]: did not cause any phytotoxic response; Soybean response (percent phytotoxicity), Als2 [4, 5]: 0%; phytotoxic response (in words), Als2 [4, 10]: did not cause any phytotoxic response
COc1nn(C(=O)NS(=O)(=O)c2ccccc2OC(F)(F)F)c(=O)n1C [Flucarbazone]	60	80	90	98	0	0	0	0	0	0	5	10	5	15	20	25	0	0	0	0	Soybean response (percent phytotoxicity), Wild type [1, 11]: 98%; Soybean response (percent phytotoxicity), Als1 + Als2 [2, 11]: 0%; Avg response (% phytotoxicity), Trait Als1 + Als2 ([2]; 280 g ai/ha): 0%; EC10, Als1 + Als2 ([2]; loglogistic fit): >280 g ai/ha; Avg response (% phytotoxicity), Trait Als1 ([3]; 17.5 g ai/ha): 0%; Avg response (% phytotoxicity), Trait Als1 ([3]; 35 g ai/ha): 0%; Avg response (% phytotoxicity), Trait Als1 ([3]; 70 g ai/ha): 5%; Avg response (% phytotoxicity), Trait Als1 ([3]; 140 g ai/ha): 10%; Soybean response (percent phytotoxicity), Als1 [3, 11]: 10%; Avg response (% phytotoxicity), Trait Als1 ([3]; 280 g ai/ha): 10%; EC10, Als1 ([3]; loglogistic fit): 230.45 g ai/ha; Avg response (% phytotoxicity), Trait Als2 ([4]; 17.5 g ai/ha): 5%; Avg response (% phytotoxicity), Trait Als2 ([4]; 35 g ai/ha): 30%; Avg response (% phytotoxicity), Trait Als2 ([4]; 70 g ai/ha): 50%; Avg response (% phytotoxicity), Trait Als2 ([4]; 140 g ai/ha): 55%; Soybean response (percent phytotoxicity), Als2 [4, 11]: 30%; Avg response (% phytotoxicity), Trait Als2 ([4]; 280 g ai/ha): 60%; EC10, Als2 ([4]; loglogistic fit): 8.14 g ai/ha
COc1cc(OC)nc(NC(=O)NS(=O)(=O)c2ncccc2C(=O)N(C)C)n1 [Nicosulfuron]	0	10	20	45	0	0	0	0	0	0	0	5	0	0	0	20	0	0	0	0	Soybean response (percent phytotoxicity), Wild type [1, 11]: 65%; Soybean response (percent phytotoxicity), Als1 + Als2 [2, 11]: 5%; Avg response (% phytotoxicity), Trait Als1 + Als2 ([2]; 280 g ai/ha): 5%; EC10, Als1 + Als2 ([2]; loglogistic fit): >280 g ai/ha; Avg response (% phytotoxicity), Trait Als1 ([3]; 17.5 g ai/ha): 0%; Avg response (% phytotoxicity), Trait Als1 ([3]; 35 g ai/ha): 0%; Avg response (% phytotoxicity), Trait Als1 ([3]; 70 g ai/ha): 0%; Avg response (% phytotoxicity), Trait Als1 ([3]; 140 g ai/ha): 5%; Soybean response (percent phytotoxicity), Als1 [3, 11]: 25%; Avg response (% phytotoxicity), Trait Als1 ([3]; 280 g ai/ha): 25%; EC10, Als1 ([3]; loglogistic fit): 187.47 g ai/ha; Avg response (% phytotoxicity), Trait Als2 ([4]; 17.5 g ai/ha): 0%; Avg response (% phytotoxicity), Trait Als2 ([4]; 35 g ai/ha): 0%; Avg response (% phytotoxicity), Trait Als2 ([4]; 70 g ai/ha): 0%; Avg response (% phytotoxicity), Trait Als2 ([4]; 140 g ai/ha): 20%; Soybean response (percent phytotoxicity), Als2 [4, 11]: 35%; Avg response (% phytotoxicity), Trait Als2 ([4]; 280 g ai/ha): 35%; EC10, Als2 ([4]; loglogistic fit): 105.60 g ai/ha
CC(C)C1(C)N=C(c2ncccc2C(=O)O)NC1=O (centres unmarked) [Imazapyr]	40	75	90	98	0	0	40	55	10	45	80	98	20	25	50	55	0	0	40	55	Soybean response (percent phytotoxicity), Wild type [1, 5]: 10%; Soybean response (percent phytotoxicity), Als1 + Als2 [2, 5]: 0%; Avg response (% phytotoxicity), Trait Als1 + Als2 ([2]; 8.75 g ai/ha): 0%; EC50, Als1 + Als2 [2, 12]: 112.81 g ai/ha; Soybean response (percent phytotoxicity), Als1 [3, 5]: 0%; Avg response (% phytotoxicity), Trait Als1 ([3]; 8.75 g ai/ha): 0%; Avg response (% phytotoxicity), Trait Als1 ([3]; 17.5 g ai/ha): 10%; Avg response (% phytotoxicity), Trait Als1 ([3]; 35 g ai/ha): 45%; Avg response (% phytotoxicity), Trait Als1 ([3]; 70 g ai/ha): 80%; Avg response (% phytotoxicity), Trait Als1 ([3]; 140 g ai/ha): 98%; EC50, Als1 [3, 12]: 38.86 g ai/ha; Soybean response (percent phytotoxicity), Als2 [4, 5]: 5%; Avg response (% phytotoxicity), Trait Als2 ([4]; 8.75 g ai/ha): 5%; Avg response (% phytotoxicity), Trait Als2 ([4]; 17.5 g ai/ha): 20%; Avg response (% phytotoxicity), Trait Als2 ([4]; 35 g ai/ha): 25%; Avg response (% phytotoxicity), Trait Als2 ([4]; 70 g ai/ha): 50%; Avg response (% phytotoxicity), Trait Als2 ([4]; 140 g ai/ha): 55%; EC50, Als2 [4, 12]: 93.91 g ai/ha
